According to ChEMBL document CHEMBL6078718, “F-CPI: A Multimodal Deep Learning Approach for Predicting Compound Bioactivity Changes Induced by Fluorine Substitution” (J Med Chem, 2025):

These compounds were tested against Replicase polyprotein 1ab (Severe acute respiratory syndrome coronavirus 2, UniProt P0DTD1) (assay: Inhibition of 6xHis-tagged SARS-CoV-2 3CLpro using DKE as substrate preincubated for 60 mins followed by substrate addition measured after 20 mins by fluorescence based assay).

| SMILES | IC50 [nM] |
| --- | --- |
| CC(C)C[C@@H](C(=O)N1C[C@]2(C[C@H]1C#N)C(=O)Nc1ccccc12)N(C)C(=O)[C@H](C)NC(=O)C(C)(C)F | 24.3 |
| C[C@H](NC(=O)C(F)(F)F)C(=O)N(C)[C@@H](CC1CC1)C(=O)N1C[C@]2(C[C@H]1C#N)C(=O)Nc1ccccc12 | 25.5 |
| C[C@H](NC(=O)C(F)F)C(=O)N(C)[C@@H](CC1CC1)C(=O)N1C[C@]2(C[C@H]1C#N)C(=O)Nc1ccccc12 | 21.2 |
| CC(=O)N[C@H](C(=O)N1C[C@H]2[C@@H]([C@H]1C(=O)N[C@H](C#N)C[C@@H]1CCNC1=O)C2(C)C)c1cc(Cl)c(OCCN(C)C)c(Cl)c1 | 28200 |
| CC(C)C[C@@H](C(=O)N1C[C@]2(C[C@H]1C#N)C(=O)Nc1ccccc12)N(C)C(=O)[C@H](C)NC(=O)C(C)C | 29.8 |
| CN(C)CCOc1c(Cl)cc([C@H](NC(=O)CF)C(=O)N2C[C@H]3[C@@H]([C@H]2C(=O)N[C@H](C#N)C[C@@H]2CCNC2=O)C3(C)C)cc1Cl | 230 |
